# Measured values published in PMC7280531, “A PROTAC peptide induces durable β-catenin degradation and suppresses Wnt-dependent intestinal cancer” (Cell Discovery, 2020).
# Where a SMILES comes first, the peptide text is derived from it. Bridges are numbered along the chain shown (N, C = ends). [ ]: non-standard residue; d: D form. The star is where a group is joined. R8 = C=CCCCCCC[C@@](C)(N)C(=O)O; S5 = C=CCCC[C@](C)(N)C(=O)O; Cbz = O=C(OCc1ccccc1)*; Ahx = NCCCCCC(=O)O
# Assays:
# β-catenin [1] = target: T1, β-catenin (Homo sapiens, UniProt P35222); assay: β-catenin immunoblotting / immunoprecipitation in HEK293T cells
# T1 sequence (P35222 1-781): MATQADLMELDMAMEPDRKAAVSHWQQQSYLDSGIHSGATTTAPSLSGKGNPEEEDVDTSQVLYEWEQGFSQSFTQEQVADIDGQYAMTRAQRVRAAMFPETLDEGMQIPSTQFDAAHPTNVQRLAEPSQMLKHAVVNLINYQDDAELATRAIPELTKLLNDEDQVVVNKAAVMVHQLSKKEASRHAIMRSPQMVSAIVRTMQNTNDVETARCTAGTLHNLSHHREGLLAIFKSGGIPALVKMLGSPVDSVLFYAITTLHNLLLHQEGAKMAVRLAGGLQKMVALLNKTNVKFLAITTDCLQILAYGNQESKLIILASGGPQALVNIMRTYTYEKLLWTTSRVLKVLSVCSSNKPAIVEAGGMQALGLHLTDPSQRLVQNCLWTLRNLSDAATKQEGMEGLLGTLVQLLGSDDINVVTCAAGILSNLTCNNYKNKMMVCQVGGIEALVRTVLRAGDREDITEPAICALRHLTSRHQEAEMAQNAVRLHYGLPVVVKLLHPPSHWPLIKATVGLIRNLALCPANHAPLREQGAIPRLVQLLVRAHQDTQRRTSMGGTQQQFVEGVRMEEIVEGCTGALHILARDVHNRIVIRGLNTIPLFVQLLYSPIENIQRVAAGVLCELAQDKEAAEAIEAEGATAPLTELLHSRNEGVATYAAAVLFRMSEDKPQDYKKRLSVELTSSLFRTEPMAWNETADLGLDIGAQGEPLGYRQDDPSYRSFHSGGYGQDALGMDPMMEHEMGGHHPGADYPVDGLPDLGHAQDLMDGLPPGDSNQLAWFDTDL
# Procedure: The relative band intensity was quantified with ImageJ and normalized to GAPDH.
# For immunoprecipitation, the cells were lysed in TNE lysis buffer (50 mM Tris-HCl, pH 8.0, 150 mM NaCl, 1% Nonidet P-40, and protease inhibitor cocktail). […] After 18,000×g centrifugation for 10 min, the lysates were immunoprecipitated with specific antibody and protein A-Sepharose beads and then washed the beads with TNE buffer for three times before immunoblotting.
# β-catenin [2] = assay: β-catenin immunoblotting in colorectal cancer cells (HCT116, SW480, LoVo); type: cell-based; settings: 50 μM xStAx-VHLL, 24 h
# Procedure: Relative
# β-catenin protein level was quantified with ImageJ and normalized to GAPDH. Data […]
# (b) LoVo cells were treated with 50 μM xStAx (xS), 50 μM
# immunoblotting. (c, d) LoVo (c) and SW480 (d) cells were treated with different
# APC^−/− organoids = assay: APC^−/− mouse intestinal organoid culture; type: cell-based; settings: 10 μM MSAB or 50 μM xStAx-VHLL, 4 days
# [3] = cited from earlier work
# Source text: Peptide stapling chemistry developed by Verdine and coworkers, takes advantage of ruthenium-catalyzed metathesis to crosslink the side chains of paired anchoring residues at suitable positions, and has been successfully applied to design various peptide inhibitors with improved proteolytic stability, membrane permeability, and thus biological activity[11],[12]. Modeled after the same Axin-derived peptide motif, we and Verdine la ... || There is more space for the improvement of the working efficacy of xStAx-VHLL. The VHL peptide ligand inserted in this study consists of natural amino acids, which could be degraded once the PROTAC peptide enters the cell. Non-natural residues substitution instead of original ones, such as reported hydroxyproline to replace regular proline[31],[32], could be an effective approach to enhance the proteolytic resistance of PROTAC. It was previously reported that peptide double-stapling at both N-terminals and C-terminals rather than single stapling conferred striking protease resistance upon the ...
# β-catenin (133-665) = target: T2, β-catenin (133-665) (Homo sapiens, UniProt P35222); assay: Isothermal titration calorimetry (ITC) of peptides with purified β-catenin
# T2 sequence (P35222 133-665): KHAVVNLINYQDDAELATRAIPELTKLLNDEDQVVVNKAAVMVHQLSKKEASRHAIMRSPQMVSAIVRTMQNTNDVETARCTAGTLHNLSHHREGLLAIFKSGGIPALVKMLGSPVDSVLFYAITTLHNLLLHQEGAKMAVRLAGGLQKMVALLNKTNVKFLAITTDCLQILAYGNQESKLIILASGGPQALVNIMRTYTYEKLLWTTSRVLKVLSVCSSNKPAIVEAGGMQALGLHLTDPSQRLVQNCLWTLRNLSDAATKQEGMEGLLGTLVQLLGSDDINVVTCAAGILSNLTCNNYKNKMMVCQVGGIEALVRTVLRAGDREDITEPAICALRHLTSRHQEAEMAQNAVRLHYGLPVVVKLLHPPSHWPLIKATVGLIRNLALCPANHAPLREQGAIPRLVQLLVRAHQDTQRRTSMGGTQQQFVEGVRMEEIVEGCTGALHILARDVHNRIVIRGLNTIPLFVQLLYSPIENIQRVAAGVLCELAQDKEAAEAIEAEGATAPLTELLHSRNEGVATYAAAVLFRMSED
# Procedure: The binding ability of the peptides with purified
# β-catenin protein in vitro.
# (a) Isothermal titration calorimetry (ITC) analysis to measure the interaction between
# Biotinylated peptides were incubated with streptavidin beads and then employed to
# The input β-catenin protein level
# was stained with Coomassie brilliant blue. The pulled down β-catenin was
# immunoblotted with anti-His antibody, and relative band intensity was quantified.
structure (smiles),measurement,setting,value
"CC(C)C[C@@H](C=O)NC(=O)[C@H](CC(C)C)NC(=O)[C@H](CC(C)C)NC(=O)OCc1ccccc1 [MG132, reference compound] (Cbz-Leu-Leu-Leu-aldehyde)",effect of proteasome inhibitor on xStAx-VHLL-induced β-catenin degradation,"β-catenin [1]; peptides 70 μM and MG132 10 μM, 16 h",blocked β-catenin degradation
"COC(=O)c1cccc(NS(=O)(=O)c2ccc(C)cc2)c1 [MSAB, reference compound]","β-catenin protein level, MSAB versus xStAx-VHLL","β-catenin [2]; HCT116 and SW480, 10 μM MSAB",decreased β-catenin protein to a comparable level
same,"β-catenin protein level, MSAB versus xStAx-VHLL","β-catenin [2]; LoVo, 10 μM MSAB",had no effect
same,"APC^−/− organoid survival, MSAB versus xStAx-VHLL",APC^−/− organoids,minimal effect
same,"β-catenin protein level, MSAB versus xStAx-VHLL","β-catenin [1]; 10 μM MSAB, 50 μM xStAx-VHLL (legend: 70 μM, Wnt3a CM), 24 h",decreased β-catenin protein to a comparable level
same,β-catenin level after wash-out of the drug,"β-catenin [1]; MSAB 10 μM or xStAx-VHLL 70 μM 24 h, then fresh medium 24 or 48 h",restored after 24 h
"CC[C@H](C)[C@@H]1NC(=O)[C@](C)(NC(=O)[C@H](CCC(N)=O)NC(=O)[C@@H]2CCCN2C(C)=O)CCCCCCC=CCCC[C@@](C)(C(=O)N[C@@H](CCCNC(=N)N)C(=O)N[C@H](C(=O)N[C@@H](CCSC)C(=O)N[C@@H](CCCCN)C(N)=O)C(C)C)NC(=O)[C@H](C(C)C)NC(=O)[C@H](Cc2c[nH]cn2)NC(=O)[C@H](CCC(N)=O)NC(=O)[C@H](CC(=O)O)NC(=O)[C@H](CC(C)C)NC1=O [SAHPA1, reference compound] (Ac-PQ[R8]ILDQHV[S5]RVMK-NH2; staple 3-10)",ability to penetrate the cell membrane,[3],capable of penetrating the cell membrane
same,Kd,β-catenin (133-665),38 µM
CC[C@H](C)[C@@H]1NC(=O)[C@](C)(NC(=O)[C@H](CCC(N)=O)NC(=O)[C@@H]2CCCN2C(C)=O)CCCCCCC=CCCC[C@@](C)(C(=O)N[C@@H](CCCNC(=N)N)C(=O)N[C@H](C(=O)N[C@@H](CCSC)C(=O)N[C@@H](CCCCN)C(=O)NCCCCCC(=O)N[C@@H](C)C(=O)N[C@@H](CC(C)C)C(=O)N[C@@H](C)C(=O)N2CCC[C@H]2C(=O)N[C@@H](Cc2ccc(O)cc2)C(=O)N[C@H](C(=O)N2CCC[C@H]2C(N)=O)[C@@H](C)CC)C(C)C)NC(=O)[C@H](C(C)C)NC(=O)[C@H](Cc2c[nH]cn2)NC(=O)[C@H](CCC(N)=O)NC(=O)[C@H](CC(=O)O)NC(=O)[C@H](CC(C)C)NC1=O [SAHPA1-VHLL] (Ac-PQ[R8]ILDQHV[S5]RVMK[Ahx]ALAPYIP-NH2; staple 3-10),Kd,β-catenin (133-665),55 µM
"Cc1ncsc1-c1ccc(CNC(=O)[C@@H]2C[C@@H](O)CN2C(=O)[C@@H](NC(=O)C2(C#N)CC2)C(C)(C)C)cc1 [VH-298, reference compound]",effect of VHL ligase inhibitor on xStAx-VHLL-mediated β-catenin degradation,"β-catenin [2]; LoVo, 100 μM inhibitor",blocked it
same,effect of VHL ligase inhibitor on xStAx-VHLL-mediated β-catenin degradation,"β-catenin [1]; Wnt3a CM, 70 μM xStAx-VHLL, 100 μM inhibitor, 24 h",blocked it
CC[C@H](C)[C@@H]1NC(=O)[C@@](C)(NC(=O)[C@H](CCCNC(=N)N)NC(=O)[C@@H]2CCCN2C(=O)[C@H](Cc2c[nH]c3ccccc23)NC(=O)[C@H](CCCNC(=N)N)NC(=O)[C@H](CCCNC(=N)N)NC(C)=O)CCCC=CCCC[C@@](C)(C(=O)N[C@@H](Cc2c[nH]cn2)C(=O)N[C@H](C(=O)N[C@@H](CCCNC(=N)N)C(=O)N[C@@H](CCCNC(=N)N)C(=O)N[C@H](C(=O)N[C@@H](Cc2c[nH]c3ccccc23)C(=O)N[C@@H](CCCNC(=N)N)C(N)=O)C(C)C)C(C)C)NC(=O)[C@H](CC(=O)O)NC(=O)[C@H](CC(C)C)NC1=O [xStAx] (Ac-RRWPR[S5]ILD[S5]HVRRVWR-NH2; staple 6-10),ability to penetrate the cell membrane,[3],capable of penetrating the cell membrane
